Results as given in patent publication US9512141B2, “Pyrazine derivatives as CB2 receptor agonists” (Hoffmann-La Roche Inc., priority 2012, dated 2016).

Columns and labels:
human CB1 receptors = human CB1 receptors (Homo sapiens (Human), UniProt P21554); assay: cAMP assay (functional), CHO cells expressing human CB1 receptors; format: cell-based; details: functional cAMP assay, CHO cells expressing human CB1; read-out: human CB1 EC50
Protocol: (§1) CHO cells expressing human CB1 or CB2 receptors are seeded 17-24 hours prior to the experiment 50.000 cells per well in a black 96 well plate with flat clear bottom (Corning Costar #3904) in DMEM (Invitrogen No. 31331), 1×HT supplement, with 10% fetal calf serum and incubated at 5% CO2 and 37° C. in a humidified incubator. The growth medium was exchanged with Krebs Ringer Bicarbonate buffer with 1 mM IBMX and incubated at 30° C. for 30 min. Compounds were added to a final assay volume of 100 μl and incubated for 30 min at 30° C. Using the cAMP-Nano-TRF detection kit the assay (Roche Diagnostics) was stopped by the addition of 50 μl lysis reagent (Tris, NaCl, 1.5% Triton X100, 2.5% NP40, 10% NaN3) and 50 μl detection solutions (20 μM mAb Alexa700-cAMP 1:1, and 48 μM Ruthenium-2-AHA-cAMP) and shaken for 2 h at room temperature. The time-resolved energy transfer is measured by a TRF reader (Evotec Technologies GmbH), equipped with a ND:YAG laser as excitation source. The plate is measured twice with the excitation at 355 nm and at the emission with a delay of 100 ns and a gate of 100 ns, total exposure time 10 s at 730 (bandwidth 30 nm) or 645 nm (bandwidth 75 nm), respectively. The FRET signal is calculated as follows: FRET=T730-Alexa730-P (T645-B645) with P=Ru730-B730/Ru645-B645, where T730 is the test well measured at […], T645 is the test well measured at 645 nm, B730 and B645 are the buffer controls at 730 nm and 645 nm, respectively. cAMP content is determined from the function of a standard curve spanning from 10 μM to 0.13 nM cAMP.
(§2) EC50 values were determined using Activity Base analysis (ID Business Solution, Limited). The EC50 values for a wide range of cannabinoid agonists generated from this assay were in agreement with the values published in the scientific literature.

human CB2 receptors = human CB2 receptors (Homo sapiens (Human), UniProt P34972); assay: cAMP assay (functional), CHO cells expressing human CB2 receptors; format: cell-based; details: functional cAMP assay, CHO cells expressing human CB2; read-out: human CB2 EC50
Protocol: as §1, §2

Sequence of human CB2 receptors (P34972 whole entry): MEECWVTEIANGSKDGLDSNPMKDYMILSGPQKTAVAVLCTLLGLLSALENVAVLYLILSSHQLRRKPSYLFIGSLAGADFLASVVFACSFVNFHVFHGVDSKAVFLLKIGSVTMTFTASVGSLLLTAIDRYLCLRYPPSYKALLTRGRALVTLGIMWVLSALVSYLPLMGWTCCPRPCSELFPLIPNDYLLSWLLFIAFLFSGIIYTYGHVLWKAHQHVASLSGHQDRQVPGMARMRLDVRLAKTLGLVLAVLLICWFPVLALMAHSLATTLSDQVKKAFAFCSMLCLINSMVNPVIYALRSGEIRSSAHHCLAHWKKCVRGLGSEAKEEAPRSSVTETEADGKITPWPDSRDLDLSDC
Sequence of human CB1 receptors (P21554 whole entry): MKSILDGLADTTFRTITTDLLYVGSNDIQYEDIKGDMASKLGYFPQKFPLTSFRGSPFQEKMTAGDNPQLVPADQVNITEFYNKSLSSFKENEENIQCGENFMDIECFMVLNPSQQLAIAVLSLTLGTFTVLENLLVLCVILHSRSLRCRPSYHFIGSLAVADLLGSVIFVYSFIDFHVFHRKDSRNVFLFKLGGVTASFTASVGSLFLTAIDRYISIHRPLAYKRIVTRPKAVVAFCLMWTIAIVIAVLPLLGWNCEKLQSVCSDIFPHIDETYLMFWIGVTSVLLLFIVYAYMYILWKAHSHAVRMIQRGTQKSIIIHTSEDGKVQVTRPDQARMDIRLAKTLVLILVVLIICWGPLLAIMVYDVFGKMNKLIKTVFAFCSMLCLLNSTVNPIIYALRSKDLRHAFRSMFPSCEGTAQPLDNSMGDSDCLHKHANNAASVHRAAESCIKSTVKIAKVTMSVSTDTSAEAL

Row | Structure (SMILES) | EC50 (human CB1 receptors) [nM] | EC50 (human CB2 receptors) [nM]
1 | COC(=O)[C@H]1CCCN1C(=O)c1cnc(N2CC(F)(F)C2)c(OCC2CC2)n1 [Example 22, (R)-1-[6-Cyclopropylmethoxy-5-(3,3-difluoro-azetidin-1-yl)-pyrazine-2-carbonyl]-pyrrolidine-2-carboxylic acid methyl ester] | > 10000 | 252
2 | O=C1CN(C(=O)c2cnc(N3CC(F)(F)C3)c(OCC3CC3)n2)CCO1 [Example 23, 4-[6-Cyclopropylmethoxy-5-(3,3-difluoro-azetidin-1-yl)-pyrazine-2-carbonyl]-morpholin-2-one] | > 10000 | 18.4
3 | CN(C)C(=S)[C@H]1CCCN1C(=O)c1cnc(N2CC(F)(F)C2)c(OCC2CC2)n1 [Example 24, (R)-1-[6-Cyclopropylmethoxy-5-(3,3-difluoro-azetidin-1-yl)-pyrazine-2-carbonyl]-pyrrolidine-2-carbothioic acid dimethylamide] | > 10000 | 333
4 | CC(=O)OC1(C)CCN(C(=O)c2cnc(C3CC3)c(OCC3CC3)n2)C1 (centres unmarked) [Example 25, Acetic acid 1-(5-cyclopropyl-6-cyclopropylmethoxy-pyrazine-2-carbonyl)-3-methyl-pyrrolidin-3-yl ester] | > 10000 | 110
5 | O=C(c1cnc(C2CC2)c(OCC2CC2)n1)N1CC(F)(F)C(F)(F)C1 [Example 26, (5-Cyclopropyl-6-cyclopropylmethoxy-pyrazin-2-yl)-(3,3,4,4-tetrafluoro-pyrrolidin-1-yl)-methanone] | > 10000 | 124
6 | CC(=O)O[C@H]1CCN(C(=O)c2cnc(N3CC(F)(F)C3)c(OCC3CC3)n2)C1 [Example 27, Acetic acid (S)-1-[6-cyclopropylmethoxy-5-(3,3-difluoro-azetidin-1-yl)-pyrazine-2-carbonyl]-pyrrolidin-3-yl ester] | > 10000 | 271
7 | O=C(c1cnc(N2CC(F)(F)C2)c(OCC2CC2)n1)N1CCC2(COC2)C1 [Example 28, [6-Cyclopropylmethoxy-5-(3,3-difluoro-azetidin-1-yl)-pyrazin-2-yl]-(2-oxa-6-aza-spiro[3.4]oct-6-yl)-methanone] | > 10000 | 204
8 | CC(=O)OC1(C)CCN(C(=O)c2cnc(N3CC(F)(F)C3)c(OCC3CC3)n2)C1 (centres unmarked) [Example 29, Acetic acid 1-[6-cyclopropylmethoxy-5-(3,3-difluoro-azetidin-1-yl)-pyrazine-2-carbonyl]-3-methyl-pyrrolidin-3-yl ester] | > 10000 | 8.8
9 | O=C(c1cnc(N2CC(F)(F)C2)c(OCC2CC2)n1)N1CC(F)(F)C(F)(F)C1 [Example 30, [6-Cyclopropylmethoxy-5-(3,3-difluoro-azetidin-1-yl)-pyrazin-2-yl]-(3,3,4,4-tetrafluoro-pyrrolidin-1-yl)-methanone] | > 10000 | 26.3
10 | CN(C(=O)c1cnc(N2CC(F)(F)C2)c(OCC(F)(F)F)n1)C(C)(C)C [Example 31, 5-(3,3-Difluoro-azetidin-1-yl)-6-(2,2,2-trifluoro-ethoxy)-pyrazine-2-carboxylic acid tert-butyl-methyl-amide] | > 10000 | 130
11 | CC1(C)CCCN1C(=O)c1cnc(N2CC(F)(F)C2)c(OCC(F)(F)F)n1 [Example 32, [5-(3,3-Difluoro-azetidin-1-yl)-6-(2,2,2-trifluoro-ethoxy)-pyrazin-2-yl]-(2,2-dimethyl-pyrrolidin-1-yl)-methanone] | > 10000 | 81.2
12 | NC(=O)C1CCCCN1C(=O)c1cnc(N2CC(F)(F)C2)c(OCC2CC2)n1 (centres unmarked) [Example 33, 1-[6-Cyclopropylmethoxy-5-(3,3-difluoro-azetidin-1-yl)-pyrazine-2-carbonyl]-piperidine-2-carboxylic acid amide] | > 10000 | 330
13 | CC1(C)CC(C(N)=O)N(C(=O)c2cnc(C3CC3)c(OCC3CC3)n2)C1 (centres unmarked) [Example 34, 1-(5-Cyclopropyl-6-cyclopropylmethoxy-pyrazine-2-carbonyl)-4,4-dimethyl-pyrrolidine-2-carboxylic acid amide] | > 10000 | 1.6
14 | CC1(C)CC(C(N)=O)N(C(=O)c2cnc(N3CC(F)(F)C3)c(OCC3CC3)n2)C1 (centres unmarked) [Example 35, 1-[6-Cyclopropylmethoxy-5-(3,3-difluoro-azetidin-1-yl)-pyrazine-2-carbonyl]-4,4-dimethyl-pyrrolidine-2-carboxylic acid amide] | > 10000 | 11.5
15 | CC1(O)C[C@@H](C(N)=O)N(C(=O)c2cnc(N3CC(F)(F)C3)c(OCC3CC3)n2)C1 (stereo partly drawn) [Example 41, (2S)-1-[6-(Cyclopropylmethoxy)-5-(3,3-difluoroazetidin-1-yl)pyrazine-2-carbonyl]-4-hydroxy-4-methylpyrrolidine-2-carboxamide] | > 10000 | 90
16 | NC(=O)[C@@H]1CC(F)(F)CN1C(=O)c1cnc(N2CC(F)(F)C2)c(OCC(F)F)n1 [Example 42, (2S)-1-[5-(3,3-Difluoroazetidin-1-yl)-6-(2,2-difluoroethoxyl)pyrazine-2-carbonyl]-4,4-difluoro-pyrrolidine-2-carboxamide] | > 10000 | 310
